Laboratory results as given in US9532554B2, “Method for inducing hepatocellular variation, and production method for chimeric non-human animal having humanized liver” (PUBLIC UNIVERSITY CORPORATION YOKOHAMA CITY UNIVERSITY, priority 2011, dated 2017).

Target: T1, human CYP2D6 (Homo sapiens, UniProt P10635)
T1 construct: from tissue; host or cells: humanized liver of chimeric mice (transplanted human hepatic cells), in vivo
Experiment: Debrisoquine metabolism to 4-OHDB in chimeric mice
Type: in vivo
Settings: debrisoquine 2.0 mg/kg orally, chimera group vs sham-operated group
Description: Debrisoquine, which serves as a common phenotyping agent for human CYP2D6, is metabolized to 4-hydroxydebrisoquine (4-OHDB) in humans but is negligible in mice.
Debrisoquine was orally administered at a dose of 2.0 mg/kg. The data was obtained 8 hours after the oral administration and is indicated by the mean±SD.

T1 sequence (P10635 whole entry): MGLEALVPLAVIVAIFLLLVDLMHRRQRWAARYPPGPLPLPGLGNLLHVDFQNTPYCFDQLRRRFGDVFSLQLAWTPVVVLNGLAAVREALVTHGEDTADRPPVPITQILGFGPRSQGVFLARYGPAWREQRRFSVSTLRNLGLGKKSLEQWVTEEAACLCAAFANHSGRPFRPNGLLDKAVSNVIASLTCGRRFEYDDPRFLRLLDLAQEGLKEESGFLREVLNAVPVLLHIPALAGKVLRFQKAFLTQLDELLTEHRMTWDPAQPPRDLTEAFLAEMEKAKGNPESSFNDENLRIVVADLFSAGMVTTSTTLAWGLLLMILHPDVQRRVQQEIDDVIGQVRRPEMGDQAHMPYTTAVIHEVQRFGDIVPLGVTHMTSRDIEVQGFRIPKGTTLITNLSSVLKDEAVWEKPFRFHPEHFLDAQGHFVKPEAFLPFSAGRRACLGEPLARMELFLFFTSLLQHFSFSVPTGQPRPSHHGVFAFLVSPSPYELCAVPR

Q: For `N=C(N)N1CCc2ccccc2C1` [debrisoquine, Debrisoquine], which “plasma concentration of 4-OHDB following oral administration of debrisoquine” value is on record?
A: higher in the chimera group than in the sham-operated group
